Test results taken from article PMC11056026, “The Evaluation of Teleost-Derived Antimicrobial Peptides Against Neisseria gonorrhoeae” (Cureus, 2024).
Where two headings read alike, the source gives them in different places. Residues, ends and D or L forms follow the SMILES beside them. No end group written: not given here.

What was measured:
[1] = test system: Neisseria gonorrhoeae MS11 strain; test: Antibiotic susceptibility testing, disk diffusion (CLSI); format: cell-based; design: key: R, resistant; I, intermediate; S, susceptible; conditions: CLSI criteria, 24 h, 37°C, 5% CO2
Description: (§1) Briefly, the overnight colonies (16-20 hours) were suspended and diluted in GCP broth to a concentration of optical density (OD) = 0.1 at 650 nm. The bacterial suspension was then plated onto GC agar plates using swabs, and the disks were placed on the bacterial lawn with sterile tweezers. The plates were incubated at 37°C with 5% CO2 for 24 hours. The diameter of the inhibition zone was measured to determine the susceptibility according to the criteria recommended by the CLSI standard.

[2] = test system: Neisseria gonorrhoeae MS11; test: Transmission electron microscopy of treated GC; format: cell-based; conditions: AMP 10 μg/mL or azithromycin 0.5 μg/mL, four hours
Text: The bars represented the means of each group with standard deviations.

[3] = test system: WHO gonococcal reference strain Z (WHO Z); test: Antibiotic susceptibility testing, disk diffusion (CLSI); format: cell-based, Neisseria gonorrhoeae; design: key: R, resistant; I, intermediate; S, susceptible; conditions: CLSI criteria, 24 h, 37°C, 5% CO2
Description: as §1

[4] = test system: Neisseria gonorrhoeae MS11 adherence to ME180 endocervical epithelial cells; test: Adherence assay of GC to ME180 cells; format: cell-based; conditions: MS11 on ME180 cells, azithromycin 0.5 μg/mL, three hours
Description: Cells were then lysed with 1% saponin in sterile phosphate-buffered saline (PBS) and spread onto the GCK agar plate. The number of adherent GC was counted to determine the effect of AMP.
Non-treated GC was served as control (Ct).
To assess the effects of AMP on adherence, MS11 was inoculated onto ME180 cells in the presence or absence of AMP for three hours. The cells were then collected and plated on GCK agar. Adherent GC were determined by colony counts. Azithromycin was used as a control for comparison.

[5] = test system: WHO gonococcal reference strain Z (WHO Z); conditions: GCP broth, 10^5 CFU/mL, 24 h, 37°C, 5% CO2, lowest concentration reducing >=90% of bacteria vs non-AMP control, means of three independent experiments
Description: (§2) The synthetic AMP (Table 1) were purchased (Mission Bio, Taipei, Taiwan), and the inhibition activity test against GC was adapted from Bergman et al.. Briefly, GC were suspended in GCP broth to a concentration of 105 colony-forming units (CFU)/mL, and 180 μL of this suspension was added to each well of a 96-well plate with 20 μL peptide solution at various concentrations. The final concentration of AMP in each well ranged from 0.08 to 20 μg/mL. The samples were incubated at 37°C with 5% CO2 for 24 hours. After the incubation, 10 μL of the suspension from each well was spotted on GCK agar plates.

[6] = test system: Neisseria gonorrhoeae MS11 strain; conditions: 24 h
Description: as §2

[7] = test system: Listeria monocytogenes; conditions: cited from earlier work
Text: (§3) [26], indicating the low efficacy of TH1-5. Piscidins were reported widely as the broadest teleost-derived AMP against several gram-positive and gram-negative species.

[8] = test system: Vibrio spp.; conditions: 100 μg/mL or above; cited from earlier work
Text: as §3

[9] = test system: ME180 endocervical epithelial cells; conditions: 24 hours; for Cell survival of ME180 cells vs non-treatment control (CCK-8): 10 μg/mL AMP, three independent experiments
Description: ME180 cells were seeded into 96-well microtiter plates at a 5 × 10^3 cells/well density and incubated for 24 hours. A final concentration of 10 μg/mL of AMP and 0.1% of positive control Triton-X were added to the well and incubated for 24 hours. Next, the Cell Counting Kit-8 (CCK-8) solution (Tools Biotech Inc., New Taipei City, Taiwan) was added and incubated for one hour. The absorbance at 450 nm was measured in each well, and the cytotoxicity level was analyzed according to the manufacturer's instructions.
GC colonization and infection only start after the GC's adherence to epithelial cells in the reproductive tract. Thus, adherence plays a crucial role in the initial colonization of GC on mucosal surfaces. […] Since these AMP may also affect epithelial cell viability, examining the effects of three AMP on both epithelial cells, and GC adherence is needed. To examine the effects of AMP on epithelial cells, ME180 cells were incubated with or without 10 μg/mL AMP for 24 hours, and the CCK-8 cell viability assay was conducted. Triton-X, a membrane-disrupting agent at a final concentration of […], was administered as a positive control.
ME180 cells were grown on a 96-well plate, and 10 μg/mL of designated AMP was added with or without inoculating MS11. (A) To measure cell cytotoxicity, cells with or without AMP or 0.1% Triton-X were incubated for 24 hours, and CCK-8 assay was performed to determine the cell survival rate. (B) To evaluate GC adherence, cells with MS11 were incubated for three hours to determine the adherent GC. GC treated with 0.5 μg/mL of azithromycin (AZI) served as a positive control. Non-treated GC was served as control (Ct). The bars represented the means of each group with standard deviations. Statistical significance was determined using a one-way ANOVA followed by post hoc Dunnett's test.

[10] = test system: HT1080 cells; conditions: HT1080, 15 μg/mL or more; cited from earlier work
[11] = test system: HeLa cells; conditions: cited from earlier work

CC[C@H]1OC(=O)[C@H](C)[C@@H](O[C@H]2C[C@@](C)(OC)[C@@H](O)[C@H](C)O2)[C@H](C)[C@@H](O[C@@H]2O[C@H](C)C[C@H](N(C)C)[C@H]2O)[C@](C)(O)C[C@@H](C)CN(C)[C@H](C)[C@@H](O)[C@]1(C)O [Azithromycin]
Antibiotic susceptibility [1]: S
Morphological and structural changes of GC (TEM) [2]: intact membranes
Antibiotic susceptibility [3]: R
Reduction of adherent GC compared to the AMP-treated group [4]: significantly higher reduction

CO/N=C(\C(=O)N[C@@H]1C(=O)N2C(C(=O)O)=C(CSc3nc(=O)c(=O)[nH]n3C)CS[C@H]12)c1csc(N)n1 [Ceftriaxone]
Antibiotic susceptibility [1]: S
Antibiotic susceptibility [3]: I

CC[C@H](C)[C@H](NC(=O)CNC(=O)[C@@H]1CCCN1C(=O)[C@@H](NC(=O)[C@H](CS)NC(=O)[C@H](CS)NC(=O)CNC(=O)[C@H](CS)NC(=O)[C@H](CS)NC(=O)[C@H](Cc1ccccc1)NC(=O)[C@H](CCCNC(=N)N)NC(=O)[C@H](CS)NC(=O)[C@H](CCCCN)NC(=O)[C@@H](NC(=O)CN)[C@@H](C)CC)[C@@H](C)O)C(=O)N[C@@H](CS)C(=O)NCC(=O)N[C@H](C(=O)N[C@@H](CS)C(=O)N[C@@H](CS)C(=O)N[C@@H](CCCNC(=N)N)C(=O)N[C@@H](Cc1ccccc1)C(=O)O)C(C)C [TH1-5] (H-GIKCRFCCGCCTPGICGVCCRF-OH; N-terminus and C-terminus assumed)
MIC of AMP [5]: >20 µg/mL
MIC of AMP ([6]; MS11 strain, GCP broth, 10^5 CFU/mL, 37°C, 5% CO2, lowest concentration reducing >=90% of bacteria vs non-AMP control, means of three independent experiments): >10 µg/mL
Concentration exhibiting antibacterial activity [7]: ≥ 100 µg/mL
Antibacterial activity [8]: not

CC(C)(C)CC(C)(C)c1ccc(OCCO)cc1 [Triton-X, reference compound]
Decrease in cell survival of ME180 cells (CCK-8) ([9]; positive control, final concentration of 0.01% (0.1% elsewhere in the source)): 88%

FFHHIFRGIVHVGKTIHRLVTG [PIS] [listing 1 of 2 here]
MIC of AMP [5]: 10 µg/mL

FFHHIFRGIVHVGKTIHRLVTG [PIS] [listing 2 of 2 here]
Cell survival of ME180 cells vs non-treatment control (CCK-8) [9]: No significant difference

FIHHIIGGLFSAGKAIHRLIRRRRR [TP4] [listing 1 of 2 here]
MIC of AMP [5]: 10 µg/mL

FIHHIIGGLFSAGKAIHRLIRRRRR [TP4] [listing 2 of 2 here]
Cell survival of ME180 cells vs non-treatment control (CCK-8) [9]: No significant difference

FIHHIIGGLFSVGKHIHSLIHGH [TP3]
MIC of AMP [5]: >20 µg/mL
MIC of AMP [6]: >10 µg/mL

Pardaxin
Inhibition of cells [10]: not
Concentration inhibiting cells [11]: ≥ 15 µg/mL
